Measured values from publication PMC11679778, “Jeju Citrus (Citrus unshiu) Leaf Extract and Hesperidin Inhibit Small Intestinal α-Glucosidase Activities In Vitro and Postprandial Hyperglycemia in Animal Model” (International Journal of Molecular Sciences, 2024).

Columns and labels:
[1] = molecular target: T1, maltase (rat small intestinal); test: liberated glucose by glucose oxidase method; format: biochemical; details: crude rat intestinal acetone powder supernatant; maltose substrate; 0.1 M phosphate pH 7.0
T1 construct: gene Mgam; native; crude supernatant of commercial rat intestinal acetone powder (Sigma-Aldrich), not purified; maltose as substrate
Description: liberated glucose by glucose oxidase method on maltase (rat small intestinal)

[2] = molecular target: T2, rat small intestinal α-glucosidase; test: pNPG hydrolysis, absorbance […] nm; format: biochemical; details: crude rat intestinal acetone powder supernatant; pNPG substrate; 0.1 M phosphate pH 6.9, 37 °C
T2 construct: gene Mgam; native; crude supernatant of commercial rat intestinal acetone powder (Sigma-Aldrich), not purified; pNPG as substrate

## COc1ccc([C@@H]2CC(=O)c3c(O)cc(O[C@@H]4O[C@H](CO[C@@H]5O[C@@H](C)[C@H](O)[C@@H](O)[C@H]5O)[C@@H](O)[C@H](O)[C@H]4O)cc3O2)cc1O [hesperidin]
[1]
  HP: 1.04 ± 0.03 mg/mL
[2]
  HP: 0.99 ± 0.14 mg/mL
